Our source for the IC50 values is US9382222B2, “Benzyl sulfonamide derivatives as RORc modulators” (Genentech, Inc., priority 2012, dated 2016).

The target of this assay is T1, RORc ligand binding domain (Homo sapiens, UniProt P51449).
T1 construct: host or cells: E. coli
T1 sequence (P51449 269-508 limits assumed): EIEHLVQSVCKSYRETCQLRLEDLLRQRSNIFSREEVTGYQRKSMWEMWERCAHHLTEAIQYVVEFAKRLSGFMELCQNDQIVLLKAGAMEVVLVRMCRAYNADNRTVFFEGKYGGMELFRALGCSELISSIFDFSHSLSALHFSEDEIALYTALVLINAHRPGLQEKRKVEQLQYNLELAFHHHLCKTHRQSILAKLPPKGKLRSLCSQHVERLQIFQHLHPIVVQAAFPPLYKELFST
In words: In Vitro RORc Ligand Binding Assay. The note with it: displacement of 25-[3H]hydroxycholesterol (6 nM), 0.6 ug/mL RORc receptor, 3 h at 25° C. As to the method:
In Vitro RORc Ligand Binding Assay This assay was used to determine a compound's potency in inhibiting activity of RORc by determining, Kiapp, IC50, or percent inhibition values. […] On day of the assay, 100 uL of 0.05% CHAPS (in deionized H2O) was added to all wells of the GFB Unifilter plate and allowed soak for 1 h. A wash buffer of 50 mM HEPES (pH 7.4), 150 mM NaCl, and 5 mM MgCl2 was prepared to wash the filter plate. To prepare an assay buffer, BSA was added to the wash buffer to reach 0.01% and DTT was added to reach 1 mM. […] The 20× compound stocks were diluted in DMSO with Assay Buffer 4-fold to reach 5× the final test concentration in 25% DMSO (10 uL compound+30 uL Assay Buffer). Solutions were mixed by aspiration several times with a pipette set on 50 uL volume. For the assay, 10 uL of 5× compound stock solutions in 25% DMSO were added to the assay plate in duplicate. For two point screening, 10 mM stock compound solutions were diluted in DMSO to obtain 200 uM (20× the high test concentration) and then diluted 10-fold further to reach 20 uM (20× the low test concentration). The 20× stocks were diluted 4-fold with Assay Buffer (10 uL compound+30 uL Assay Buffer) to reach 5× the test concentrations (50 uM and 5 uM) and 10 uL were added to two assay plates for the duplicate wells. […] Add 20 uL to all wells to reach 6 nM final concentration in the assay. […] Stock receptor solution was diluted in assay buffer to obtain 1.5 ug/mL in Assay Buffer. 20 uL was added to all wells. For No Receptor samples, 20 uL Assay Buffer was substituted for receptor solution. […] Following addition to the wells, the plates were incubated 3 h at 25° C. Using a Packard Filtermate Harvester, the filter plate were washed 4 times following transfer of the incubated samples. Plates were dry-filtered completely (2 h at 50° C. or overnight at room temperature). 50 uL Microscint 0 was added to all wells and read on Topcount protocol Inverted. […] For NSB wells, 1 uM 25-hydroxycholesterol was also present.
`CC(=O)N1CCN(c2ccc(S(=O)(=O)N(Cc3ccccc3C(F)(F)F)C3CCC3)cc2)CC1` [Compound 76, 4-(4-Acetyl-piperazin-1-yl)-N-cyclobutyl-N-(2-trifluoromethyl-benzyl)-benzenesulfonamide] showed an IC50 of 31 nM.
`CC(C)CN(Cc1ccccc1C(F)(F)F)S(=O)(=O)c1ccc(N2CCN(S(=O)(=O)N(C)C)CC2)cc1` [Compound 73, 4-{4-[Isobutyl-(2-trifluoromethyl-benzyl)-sulfamoyl]-phenyl}-piperazine-1-sulfonic acid dimethylamide] registered an IC50 of 23 nM.
As for `CC(C)CN([C@@H](CO)c1ccccc1)S(=O)(=O)c1ccc(N2CCN(S(C)(=O)=O)CC2)cc1` [Compound 92, N-((R)-2-Hydroxy-1-phenyl-ethyl)-N-isobutyl-4-(4-methanesulfonyl-piperazin-1-yl)-benzenesulfonamide], the figure is 3100 nM; as for `CC(C)CN(c1ccccc1C(F)(F)F)S(=O)(=O)c1ccc(NC(=O)C2CCN(S(C)(=O)=O)CC2)cc1` [Compound 11, 1-Methanesulfonyl-piperidine-4-carboxylic acid {4-[isobutyl-(2-trifluoromethyl-phenyl)-sulfamoyl]-phenyl}-amide], 13 nM; as for `CC(C)CN(c1ccccc1Cl)S(=O)(=O)c1ccc(N2CCN(S(C)(=O)=O)CC2)cc1` [Compound 22, N-(2-Chloro-phenyl)-N-isobutyl-4-(4-methanesulfonyl-piperazin-1-yl)-benzenesulfonamide], 87 nM.
In turn, `CC(=O)N1CCN(c2ccc(S(=O)(=O)N(Cc3ccccc3C(F)(F)F)C(C)(C)C)cc2)CC1` [Compound 81, 4-(4-Acetyl-piperazin-1-yl)-N-tert-butyl-N-(2-trifluoromethyl-benzyl)-benzenesulfonamide] came in with a half-inhibitory concentration (IC50) of 110 nM.
In turn, `CN(C)S(=O)(=O)N1CCN(c2ccc(S(=O)(=O)N(Cc3ccccc3C(F)(F)F)CC(F)(F)F)cc2)CC1` [Compound 79, 4-{4-[(2,2,2-Trifluoro-ethyl)-(2-trifluoromethyl-benzyl)-sulfamoyl]-phenyl}-piperazine-1-sulfonic acid dimethylamide] came in with an IC50 of 55 nM.
For `CC(=O)N1CCN(c2ccc(S(=O)(=O)N(CC(C)C)c3ccccc3C(F)(F)F)cc2)CC1` [Compound 41, 4-(4-Acetyl-piperazin-1-yl)-N-isobutyl-N-(2-trifluoromethyl-phenyl)-benzenesulfonamide] the value was 28 nM.
For `CC(=O)N1CCN(c2ccc(S(=O)(=O)N(Cc3ccccc3C(F)(F)F)CC(C)(C)C)cc2)CC1` [Compound 88, 4-(4-Acetyl-piperazin-1-yl)-N-(2,2-dimethyl-propyl)-N-(2-trifluoromethyl-benzyl)-benzenesulfonamide] the value was 39 nM; for `CC(=O)N1CCN(c2ccc(S(=O)(=O)N(c3cccc(Cl)c3)C3CCC3)cc2)CC1` [Compound 30, 4-(4-Acetyl-piperazin-1-yl)-N-(3-chloro-phenyl)-N-cyclobutyl-benzenesulfonamide], 149 nM.
As to `CC(=O)N1CCN(c2ccc(S(=O)(=O)N(CC(F)(F)F)c3cccc(Cl)c3)cc2)CC1` [Compound 37, 4-(4-Acetyl-piperazin-1-yl)-N-(3-chloro-phenyl)-N-(2,2,2-trifluoro-ethyl)-benzenesulfonamide], the half-inhibitory concentration (IC50) was 305 nM.
For `CC(C)CN(c1cccc(Cl)c1)S(=O)(=O)c1ccc(N[C@@H]2CCCN(S(C)(=O)=O)C2)cc1` [Compound 44, N-(3-Chloro-phenyl)-N-isobutyl-4-((R)-1-methanesulfonyl-piperidin-3-ylamino)-benzenesulfonamide] the value was 117 nM; for `CC(=O)N1CCN(c2ccc(S(=O)(=O)N(Cc3ccccc3C(F)(F)F)CC(F)(F)F)cc2)CC1` [Compound 80, 4-(4-Acetyl-piperazin-1-yl)-N-(2,2,2-trifluoro-ethyl)-N-(2-trifluoromethyl-benzyl)-benzenesulfonamide], 87 nM; for `CC(C)CN(c1ccccc1Cl)S(=O)(=O)c1cccc(N2CCN(S(C)(=O)=O)CC2)c1` [Compound 25, N-(2-Chloro-phenyl)-N-isobutyl-3-(4-methanesulfonyl-piperazin-1-yl)-benzenesulfonamide], 528 nM.
`CC(C)CN(Cc1ccccc1C(F)(F)F)S(=O)(=O)c1ccc(NC2CCN(S(C)(=O)=O)CC2)cc1` [Compound 84, N-Isobutyl-4-(1-methanesulfonyl-piperidin-4-ylamino)-N-(2-trifluoromethyl-benzyl)-benzenesulfonamide]: the IC50 is 6 nM.
Compound `CC(C)CN(c1cc(F)ccc1F)S(=O)(=O)c1ccc(OC2CCN(S(C)(=O)=O)CC2)cc1` [Compound 51, N-(2,5-Difluoro-phenyl)-N-isobutyl-4-(1-methanesulfonyl-piperidin-4-yloxy)-benzenesulfonamide] returned a concentration for half-maximal inhibition (IC50) of 8 nM.
As for `CC(C)CN(c1cccc(Cl)c1)S(=O)(=O)c1ccc(O[C@@H]2CCCN(S(C)(=O)=O)C2)cc1` [Compound 42, N-(3-Chloro-phenyl)-N-isobutyl-4-((R)-1-methanesulfonyl-piperidin-3-yloxy)-benzenesulfonamide], the figure is 164 nM; as for `CC(C)CN(c1cccc(Cl)c1)S(=O)(=O)c1ccc(NC2CCN(C(N)=O)CC2)cc1` [Compound 36, 4-{4-[(3-Chloro-phenyl)-isobutyl-sulfamoyl]-phenylamino}-piperidine-1-carboxylic acid amide], 66 nM; as for `CC(=O)N1CCN(c2ccc(S(=O)(=O)N(Cc3cccc(C(F)(F)F)c3)CC(C)C)cc2)CC1` [Compound 58, 4-(4-Acetyl-piperazin-1-yl)-N-isobutyl-N-(3-trifluoromethyl-benzyl)-benzenesulfonamide], 244 nM.
Consider `CC(C)CN(Cc1ccccc1C(F)(F)F)S(=O)(=O)c1ccc(N2CCN(S(C)(=O)=O)CC2)cc1F` [Compound 69, 2-Fluoro-N-isobutyl-4-(4-methanesulfonyl-piperazin-1-yl)-N-(2-trifluoromethyl-benzyl)-benzenesulfonamide], for which the IC50 came to 20 nM.
As for `C=C(c1ccccc1)N(CC(C)C)S(=O)(=O)c1ccc(N2CCN(S(C)(=O)=O)CC2)cc1` [Compound 78, N-Isobutyl-4-(4-methanesulfonyl-piperazin-1-yl)-N-(1-phenyl-vinyl)-benzenesulfonamide], the figure is 23 nM; as for `CC(C)CN(c1cccc(F)c1F)S(=O)(=O)c1ccc(OC2CCN(S(C)(=O)=O)CC2)cc1` [Compound 49, N-(2,3-Difluoro-phenyl)-N-isobutyl-4-(1-methanesulfonyl-piperidin-4-yloxy)-benzenesulfonamide], 8 nM; as for `CC(C)CN([C@H](C)c1ccccc1)S(=O)(=O)c1ccc(N2CCN(S(C)(=O)=O)CC2)cc1` [Compound 62, N-Isobutyl-4-(4-methanesulfonyl-piperazin-1-yl)-N-((R)-1-phenyl-ethyl)-benzenesulfonamide], 483 nM.
As for `CC(C)CN(c1ccccc1Cl)S(=O)(=O)c1ccc(N2CCN(S(=O)(=O)N(C)C)CC2)cc1` [Compound 20, 4-{4-[(2-Chloro-phenyl)-isobutyl-sulfamoyl]-phenyl}-piperazine-1-sulfonic acid dimethylamide], the figure is 81 nM; as for `CC(C)CN(c1ccc(F)cc1F)S(=O)(=O)c1ccc(OC2CCN(S(C)(=O)=O)CC2)cc1` [Compound 50, N-(2,4-Difluoro-phenyl)-N-isobutyl-4-(1-methanesulfonyl-piperidin-4-yloxy)-benzenesulfonamide], 9 nM.
For `CC(C)CN(c1cccc(Cl)c1)S(=O)(=O)c1ccc(O[C@H]2CCCN(S(C)(=O)=O)C2)cc1` [Compound 43, N-(3-Chloro-phenyl)-N-isobutyl-4-((S)-1-methanesulfonyl-piperidin-3-yloxy)-benzenesulfonamide] the value was 281 nM; for `CC(C)CN(Cc1ccc(OC(F)(F)F)cc1)S(=O)(=O)c1ccc(NC2CCN(S(C)(=O)=O)CC2)cc1` [Compound 90, N-Isobutyl-4-(1-methanesulfonyl-piperidin-4-ylamino)-N-(4-trifluoromethoxy-benzyl)-benzenesulfonamide], 11 nM.
`COc1ccc(CN(CC(C)C)S(=O)(=O)c2ccc(N3CCN(S(C)(=O)=O)CC3)cc2)cc1` [Compound 66, N-Isobutyl-4-(4-methanesulfonyl-piperazin-1-yl)-N-(4-methoxy-benzyl)-benzenesulfonamide] displayed an IC50 of 79 nM. This IC50 is about 7.2-fold higher than that of the compound before.

As a reminder, the IC50 is the concentration needed to halve the response being measured. A lower IC50 goes with greater potency.
